According to the supplement of paper PMC11061612:

Key:
[1] = tested on: EW-3 (Ewing's Sarcoma); test: Bliss excess, mean over the matrix (fraction); higher = more synergy
Summary of the method: (§1)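 Cell lines grown in DMEM/F12 or RPMI with 10% FBS were plated in 1536-well plates and held 24 hours at 37°C, 5% CO2 before 72 hours of exposure to two-drug dose matrices, with DMSO typically at 0.2%. CellTiter-Glo 2.0 luminescence gave viability, which was converted to inhibition. Vehicle wells were set to 0 and blank wells to 1. Combination Emax is the second-highest inhibition in the matrix, and Bliss excess is the observed combination effect minus the expected EA + EB − EA·EB, where EA and EB are the single-agent effects.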

[2] = tested on: HuP-T3 (Pancreatic Carcinoma); test: as above
Summary of the method: as §1

[3] = tested on: NCI-H1573 (Lung Adenocarcinoma); test: as above
Summary of the method: as §1

[4] = tested on: NCI-N87 (Gastric Carcinoma); test: as above
Summary of the method: as §1

[5] = tested on: OCUB-M (Breast Carcinoma); test: as above
Summary of the method: as §1

[6] = tested on: U-87-MG (Glioblastoma); test: as above
Summary of the method: as §1

[7] = tested on: VMRC-LCD (Lung Adenocarcinoma); test: as above
Summary of the method: as §1

[8] = tested on: EBC-1 (Squamous Cell Lung Carcinoma); test: combination Emax (second highest fraction inhibited in the dose matrix, 72 h); higher = more inhibition; extreme values may be limits of the assay
Summary of the method: as §1

[9] = tested on: EMC-BAC-2 (Non-Small Cell Lung Carcinoma); test: as above
Summary of the method: as §1

[10] = tested on: EW-13 (Ewing's Sarcoma); test: as above
Summary of the method: as §1

[11] = tested on: GI-1 (Glioblastoma); test: as above
Summary of the method: as §1

[12] = tested on: IMR-5 (Neuroblastoma); test: as above
Summary of the method: as §1

[13] = tested on: KINGS-1 (Low Grade Glioma); test: as above
Summary of the method: as §1

[14] = tested on: KLE (Endometrial Carcinoma); test: as above
Summary of the method: as §1

[15] = tested on: KYSE-150 (Esophageal Squamous Cell Carcinoma); test: as above
Summary of the method: as §1

[16] = tested on: KYSE-50 (Esophageal Squamous Cell Carcinoma); test: as above
Summary of the method: as §1

[17] = tested on: NCI-H513 (Other Solid Carcinomas); test: as above
Summary of the method: as §1

[18] = tested on: OCUB-M (Breast Carcinoma); test: as above
Summary of the method: as §1

[19] = tested on: PFSK-1 (Other Solid Carcinomas); test: as above
Summary of the method: as §1

[20] = tested on: U-87-MG (Glioblastoma); test: as above
Summary of the method: as §1
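Wherever Bliss excess, mean over the matrix is given: after 72 h of two-drug dosing.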

| SMILES | Bliss excess [1] | Bliss excess [2] | Bliss excess [3] | Bliss excess [4] | Bliss excess [5] | Bliss excess [6] | Bliss excess [7] | combination Emax [8] | combination Emax [9] | combination Emax [10] | combination Emax [11] | combination Emax [12] | combination Emax [13] | combination Emax [14] | combination Emax [15] | combination Emax [16] | combination Emax [17] | combination Emax [18] | combination Emax [19] | combination Emax [20] |
| --- | --- | --- | --- | --- | --- | --- | --- | --- | --- | --- | --- | --- | --- | --- | --- | --- | --- | --- | --- | --- |
| COc1nnc2ccc(N3CCC(c4ccc(OCCN5CCN(C)C(=O)[C@H]5C)cc4)CC3)nn12 [AZD5153] + Cc1c2c(nn1C)CSCc1cc(n(C)n1)CSc1cc(c3ccccc3c1)OCCCc1c(C(=O)O)n(C)c3c-2c(Cl)ccc13 [AZD5991] (first compound max 1 µM, 7x7, partner max 1 µM) | 0.0114 | 0.0051 | 0.0475 | -0.0073 | 0.0063 | 0.0336 | 0.0098 | 0.862 | 0.886 | 0.68 | 0.961 | 1 | 0.186 | 0.668 | 0.582 | 0.713 | 0.423 | 1 | 0.982 | 0.559 |
| COc1nnc2ccc(N3CCC(c4ccc(OCCN5CCN(C)C(=O)[C@H]5C)cc4)CC3)nn12 [AZD5153] + Cn1cnc2c(F)c(Nc3ccc(Br)cc3Cl)c(C(=O)NOCCO)cc21 [Selumetinib] (first compound max 1 µM, 7x7, partner max 10 µM) | -0.0625 | 0.0075 | 0.0491 | -0.0399 | -0.0036 | -0.0591 | -0.0401 | 1 | 0.738 | 0.315 | 0.705 | 0.906 | 0.323 | 0.631 | 0.661 | 0.697 | 0.499 | 0.534 | 0.664 | 0.698 |
| Cc1c2c(nn1C)CSCc1cc(n(C)n1)CSc1cc(c3ccccc3c1)OCCCc1c(C(=O)O)n(C)c3c-2c(Cl)ccc13 [AZD5991] + C=CCn1c(=O)c2cnc(Nc3ccc(N4CCN(C)CC4)cc3)nc2n1-c1cccc(C(C)(C)O)n1 [AZD1775] (first compound max 1 µM, partner max 1 µM) | 0.017 | -0.0454 | -0.0248 | -0.0275 | 0.034 | 0.0392 | -0.0174 | 0.299 | 0.842 | 0.388 | 0.958 | 1 | 0.334 | 0.538 | 0.634 | 0.618 | 0.532 | 0.984 | 1 | 0.457 |
| Cc1c2c(nn1C)CSCc1cc(n(C)n1)CSc1cc(c3ccccc3c1)OCCCc1c(C(=O)O)n(C)c3c-2c(Cl)ccc13 [AZD5991] + CC1(C)CCC(CN2CCN(c3ccc(C(=O)NS(=O)(=O)c4ccc(NCC5CCOCC5)c([N+](=O)[O-])c4)c(Oc4cnc5[nH]ccc5c4)c3)CC2)=C(c2ccc(Cl)cc2)C1 [Venetoclax] (first compound max 1 µM, 7x7, partner max 1 µM) | 0.125 | -0.0358 | -0.036 | -0.0041 | 0.006 | -0.0877 | -0.0217 | 0.199 | 0.694 | 0.675 | 0.954 | 0.995 | 0.266 | 0.156 | 0.17 | 0.418 | 0.156 | 0.996 | 1 | 0.174 |
| Cc1c2c(nn1C)CSCc1cc(n(C)n1)CSc1cc(c3ccccc3c1)OCCCc1c(C(=O)O)n(C)c3c-2c(Cl)ccc13 [AZD5991] + CCN(CCO)CCCOc1ccc2c(Nc3cc(CC(=O)Nc4cccc(F)c4)[nH]n3)ncnc2c1 [AZD2811] (first compound max 1 µM, 7x7, partner max 1 µM) | 0.05 | -0.019 | -0.0145 | -0.0104 | -0.0116 | 0.0065 | -0.0133 | 0.243 | 0.823 | 0.454 | 0.9 | 1 | 0.242 | 0.267 | 0.498 | 0.556 | 0.197 | 1 | 0.998 | 0.326 |
| Cc1c2c(nn1C)CSCc1cc(n(C)n1)CSc1cc(c3ccccc3c1)OCCCc1c(C(=O)O)n(C)c3c-2c(Cl)ccc13 [AZD5991] + CN(C)CCCOc1ccc(-c2ccc3ncc4c(c3c2)n(C2CCOCC2)c(=O)n4C)cn1 [AZD0156] (first compound max 1 µM, 7x7, partner max 1 µM) | -0.0499 | -0.0479 | -0.0443 | 0.0027 | 0.0178 | -0.0477 | 0.0165 | 0.251 | 0.745 | 0.401 | 0.774 | 0.985 | 0.278 | 0.262 | 0.453 | 0.292 | 0.228 | 0.949 | 0.993 | 0.253 |
